Reference: patent US8362249B2, “CXCR3 receptor antagonists” (Boehringer Ingelheim International GmbH, priority 2009, dated 2013)

Each compound was assayed against CXCR3 (Macaca fascicularis, UniProt A0A2K5UV19) (assay: functional cellular assay measuring calcium flux in CXCR3 transfected cells (block of CXCR3/IP-10 interaction)). Conditions: IP-10 induced intracellular calcium flux; Cyno-CHO cells stably expressing recombinant CXCR3 and G-alpha-16.
Assay type: cell-based
Experimental: Compounds are assessed for the ability to block the interaction of CXCR3 and IP-10 in a functional cellular assay measuring calcium flux in CXCR3 transfected cells.
Cyno-CHO cells, stably expressing recombinant CXCR3 and G-alpha-16 are grown in F12 medium (Mediatech #45000-360) supplemented with 10% (V/V) FBS (Mediatech #35-01500), 1% Geneticin (Invitrogen #10131-027) and 0.2% Zeocin (Invitrogen #R250-05). The cells are spun down and re-suspended in growth media to a concentration of 4.8 E5 cells/mL. 25 microL of cell suspension is added to each well of a BD-384-well TC treated plate, providing 12,000 cells/well. The plate is incubated at 37° C./5% CO2 overnight. On the day of the assay, the plates are removed, the media is flicked out and 25 microL of Ca-4 dye in assay buffer (HBSS, 10 mM HEPES ph 7.4), containing 2 mM probenacid is added to each well. The cell assay plates are then incubated at 37° C./5% CO2 for one hour.
Test compounds are dissolved in DMSO and diluted to 1.045 mM in DMSO. Just prior to assay, 2.75 microL of appropriately diluted test compound are added to each well of a 384 well plate containing 45 microL of HBSS buffer. After mixing, 5 microL of diluted compound are added to each well of the cell assay plate for a final assay concentration of 10 microM. The plate is incubated at room temperature for 15 min. 10 microL of IP-10 stock solution in HBSS (4× EC80 concentration) are added to each well of the cell assay plate except those cells reserved as blank wells containing buffer only. Intracellular calcium flux is recorded on the HAMAMTSU FDSS6000, using excitation at 480 nm and emission at 540 nm. Data are analyzed using Activity Base software.
In general, the preferred potency range (IC50) of compounds in the above assay is between 1 nM to 3 μM, and the most preferred potency range is 1 nM to 20 nM.

CXCR3, sequence (A0A2K5UV19 entry or part of it): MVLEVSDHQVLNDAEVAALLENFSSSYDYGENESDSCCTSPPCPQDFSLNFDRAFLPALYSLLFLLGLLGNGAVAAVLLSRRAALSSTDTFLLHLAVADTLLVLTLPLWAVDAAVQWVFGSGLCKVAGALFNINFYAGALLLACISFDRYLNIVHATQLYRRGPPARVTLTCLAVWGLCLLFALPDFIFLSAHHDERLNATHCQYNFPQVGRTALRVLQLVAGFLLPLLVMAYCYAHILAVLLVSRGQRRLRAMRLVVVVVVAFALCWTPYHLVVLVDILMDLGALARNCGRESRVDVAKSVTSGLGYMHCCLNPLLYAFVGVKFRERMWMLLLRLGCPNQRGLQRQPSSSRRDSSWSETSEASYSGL

| Structure (SMILES) | IC50 |
| --- | --- |
| COc1ccc(NC(=O)c2ccccc2N2CCN(C(=O)Cn3nc(C)cc3C)CC2)cn1 [2-{4-[2-(3,5-Dimethyl-pyrazol-1-yl)-acetyl]-piperazin-1-yl}-N-(6-methoxy-pyridin-3-yl)-benzamide] | 5.9 nM |
| Cc1cc(C)n(CC(=O)N2CCN(c3ccccc3C(=O)Nc3ccc(N4CCOCC4)nc3)CC2)n1 [2-{4-[2-(3,5-Dimethyl-pyrazol-1-yl)-acetyl]-piperazin-1-yl}-N-(6-morpholin-4-yl-pyridin-3-yl)-benzamide] | 12.5 nM |
| Cc1cc(C)n(CC(=O)N2CCN(c3ccccc3C(=O)Nc3ccc(Oc4ccccc4)nc3)CC2)n1 [2-{4-[2-(3,5-Dimethyl-pyrazol-1-yl)-acetyl]-piperazin-1-yl}-N-(6-phenoxy-pyridin-3-yl)-benzamide] | 10 nM |
| Cc1cc(C)n(CC(=O)N2CCN(c3ccccc3C(=O)Nc3ccc(-c4ccccc4)nc3)CC2)n1 [2-{4-[2-(3,5-Dimethyl-pyrazol-1-yl)-acetyl]-piperazin-1-yl}-N-(6-phenyl-pyridin-3-yl)-benzamide] | 11.5 nM |
| Cc1cc(C)n(CC(=O)N2CCN(c3ccccc3C(=O)Nc3ccc(C(F)(F)F)nc3)CC2)n1 [2-{4-[2-(3,5-Dimethyl-pyrazol-1-yl)-acetyl]-piperazin-1-yl}-N-(6-trifluoromethyl-pyridin-3-yl)-benzamide] | 11 nM |
| Cc1cc(C)n(CC(=O)N2CCN(c3ccccc3C(=O)Nc3ccnc(OCC(F)(F)F)c3)CC2)n1 [2-{4-[2-(3,5-Dimethyl-pyrazol-1-yl)-acetyl]-piperazin-1-yl}-N-[2-(2,2,2-trifluoro-ethoxy)-pyridin-4-yl]-benzamide] | 8.8 nM |
| Cc1cc(C)n(CC(=O)N2CCN(c3ccccc3C(=O)Nc3ccnc(N4CCN(C)CC4)c3)CC2)n1 [2-{4-[2-(3,5-Dimethyl-pyrazol-1-yl)-acetyl]-piperazin-1-yl}-N-[2-(4-methyl-piperazin-1-yl)-pyridin-4-yl]-benzamide] | 14 nM |
| Cc1cc(C)n(CC(=O)N2CCN(c3ccccc3C(=O)Nc3ccc4cnccc4c3)CC2)n1 [2-{4-[2-(3,5-Dimethyl-pyrazol-1-yl)-acetyl]-piperazin-1-yl}-N-isoquinolin-6-yl-benzamide] | 13 nM |
| Cc1cc(C)n(CC(=O)N2CCN(c3ccccc3C(=O)Nc3ccccc3)CC2)n1 [2-{4-[2-(3,5-Dimethyl-pyrazol-1-yl)-acetyl]-piperazin-1-yl}-N-phenyl-benzamide] | 13 nM |
| Cc1cc(C)n(CC(=O)N2CCN(c3ccccc3C(=O)Nc3ccnnc3)CC2)n1 [2-{4-[2-(3,5-Dimethyl-pyrazol-1-yl)-acetyl]-piperazin-1-yl}-N-pyridazin-4-yl-benzamide] | 17 nM |
| Cc1cc(C)n(CC(=O)N2CCN(c3ccccc3C(=O)Nc3cccnc3)CC2)n1 [2-{4-[2-(3,5-Dimethyl-pyrazol-1-yl)-acetyl]-piperazin-1-yl}-N-pyridin-3-yl-benzamide] | 6.6 nM |
| Cc1cc(C)n(CC(=O)N2CCN(c3ccccc3C(=O)Nc3ccc4ncccc4c3)CC2)n1 [2-{4-[2-(3,5-Dimethyl-pyrazol-1-yl)-acetyl]-piperazin-1-yl}-N-quinolin-6-yl-benzamide] | 11.5 nM |
| Cc1cc(C)n(CC(=O)N2CCN(c3ccccc3C(=O)Nc3nccs3)CC2)n1 [2-{4-[2-(3,5-Dimethyl-pyrazol-1-yl)-acetyl]-piperazin-1-yl}-N-thiazol-2-yl-benzamide] | 13 nM |
| CN(CC(=O)N1CCN(c2ccccc2C(=O)Nc2ccncc2)CC1)C(=O)c1ccccc1 [2-{4-[2-(Benzoyl-methyl-amino)-acetyl]-piperazin-1-yl}-N-pyridin-4-yl-benzamide] | 8.4 nM |
| COc1cc(NC(=O)c2ccccc2N2CCN(C(=O)Cn3nc(C)cc3C)[C@@H](C)C2)ccn1 [2-{(S)-4-[2-(3,5-Dimethyl-pyrazol-1-yl)-acetyl]-3-methyl-piperazin-1-yl}-N-(2-methoxy-pyridin-4-yl)-benzamide] | 21 nM |
| COc1ccc(C(=O)NCC(=O)N2CCN(c3ccccc3C(=O)Nc3ccccc3)CC2)cc1OC [3,4-Dimethoxy-N-{2-oxo-2-[4-(2-phenylcarbamoyl-phenyl)-piperazin-1-yl]-ethyl}-benzamide] | 8.1 nM |
| Cc1cc(C)n(CC(=O)N2CC=C(c3ccc(Cl)cc3NC(=O)c3cccc(Cl)c3)CC2)n1 [3-Chloro-N-(5-chloro-2-{1-[2-(3,5-dimethyl-pyrazol-1-yl)-acetyl]-1,2,3,6-tetrahydro-pyridin-4-yl}-phenyl)-benzamide] | 7 nM |
| O=C(Nc1cc(Cl)cnc1N1CCN(C(=O)CN2CCCCC2=O)CC1)c1cccc(Cl)c1 [3-Chloro-N-(5-chloro-2-{4-[2-(2-oxo-piperidin-1-yl)-acetyl]-piperazin-1-yl}-pyridin-3-yl)-benzamide] | 7.7 nM |
| Cc1cc(C)n(CC(=O)N2CCCN(c3ncc(Cl)cc3NC(=O)c3cccc(Cl)c3)CC2)n1 [3-Chloro-N-(5-chloro-2-{4-[2-(3,5-dimethyl-pyrazol-1-yl)-acetyl]-[1,4]diazepan-1-yl}-pyridin-3-yl)-benzamide] | 15 nM |
| Cc1cc(C)n(CC(=O)N2CCN(c3ncc(Cl)cc3NC(=O)c3cccc(Cl)c3)CC2)n1 [3-Chloro-N-(5-chloro-2-{4-[2-(3,5-dimethyl-pyrazol-1-yl)-acetyl]-piperazin-1-yl}-pyridin-3-yl)-benzamide] | 11.5 nM |
| Cc1nn(CC(=O)N2CCCN(c3ncc(Cl)cc3NC(=O)c3cccc(Cl)c3)CC2)c(C)c1Cl [3-Chloro-N-(5-chloro-2-{4-[2-(4-chloro-3,5-dimethyl-pyrazol-1-yl)-acetyl]-[1,4]diazepan-1-yl}-pyridin-3-yl)-benzamide] | 15 nM |
| COc1ccc(C(=O)NCC(=O)N2CCN(c3ccccc3C(=O)Nc3cccnc3)CC2)cc1F [3-Fluoro-4-methoxy-N-(2-oxo-2-{4-[2-(pyridin-3-ylcarbamoyl)-phenyl]-piperazin-1-yl}-ethyl)-benzamide] | 19.5 nM |
| COc1ccc(C(=O)N(C)CC(=O)N2CCN(c3ccccc3C(=O)Nc3ccncc3)CC2)cc1F [3-Fluoro-4-methoxy-N-methyl-N-(2-oxo-2-{4-[2-(pyridin-4-ylcarbamoyl)-phenyl]-piperazin-1-yl}-ethyl)-benzamide] | 15 nM |

Stronger by IC50, values ahead:

| IC50 | Structure (SMILES) |
| --- | --- |
| 5.4 nM | Cc1nn(CC(=O)N2CCN(c3ccccc3C(=O)Nc3ccncc3)CC2)c(=O)c2ccccc12 [2-{4-[2-(4-Methyl-1-oxo-1H-phthalazin-2-yl)-acetyl]-piperazin-1-yl}-N-pyridin-4-yl-benzamide] |
| 5.3 nM | Cc1ccc(NC(=O)c2ccccc2N2CCN(C(=O)Cn3nc(C)cc3C)CC2)cn1 [2-{4-[2-(3,5-Dimethyl-pyrazol-1-yl)-acetyl]-piperazin-1-yl}-N-(6-methyl-pyridin-3-yl)-benzamide] |
| 4.8 nM | Cc1cc(C)n(CC(=O)N2CCN(c3ccccc3C(=O)Nc3cnc4ccccc4c3)CC2)n1 [2-{4-[2-(3,5-Dimethyl-pyrazol-1-yl)-acetyl]-piperazin-1-yl}-N-quinolin-3-yl-benzamide] |
| 4.7 nM | Cc1cc(C)n(CC(=O)N2CCN(c3ccccc3C(=O)Nc3ccncc3)CC2)n1 [2-{4-[2-(3,5-Dimethyl-pyrazol-1-yl)-acetyl]-piperazin-1-yl}-N-pyridin-4-yl-benzamide] |
| 4.7 nM | Cc1cc(C)n(CC(=O)N2CCN(c3ccccc3NC(=O)c3ccc(Cl)cc3)CC2)n1 [4-Chloro-N-(2-{4-[2-(3,5-dimethyl-pyrazol-1-yl)-acetyl]-piperazin-1-yl}-phenyl)-benzamide] |
| 4.6 nM | COc1ccc(C(=O)NCC(=O)N2CCN(c3ccccc3C(=O)Nc3ccncc3)CC2)cc1OC [3,4-Dimethoxy-N-(2-oxo-2-{4-[2-(pyridin-4-ylcarbamoyl)-phenyl]-piperazin-1-yl}-ethyl)-benzamide] |
| 4.2 nM | Cc1cc(C)n(CC(=O)N2CCN(c3ccccc3NC(=O)c3cccc(Cl)c3)CC2)n1 [3-Chloro-N-(2-{4-[2-(3,5-dimethyl-pyrazol-1-yl)-acetyl]-piperazin-1-yl}-phenyl)-benzamide] |
| 4.2 nM | COc1ccc(C(=O)NCC(=O)N2CCN(c3ccccc3C(=O)Nc3ccncc3)CC2)cc1F [3-Fluoro-4-methoxy-N-(2-oxo-2-{4-[2-(pyridin-4-ylcarbamoyl)-phenyl]-piperazin-1-yl}-ethyl)-benzamide] |
| 4 nM | Cn1c(=O)n(CC(=O)N2CCN(c3ccccc3C(=O)Nc3ccncc3)CC2)c2ccccc21 [2-{4-[2-(3-Methyl-2-oxo-2,3-dihydro-benzoimidazol-1-yl)-acetyl]-piperazin-1-yl}-N-pyridin-4-yl-benzamide] |
| 3.4 nM | O=C(Nc1ccncc1)c1ccccc1N1CCN(C(=O)Cn2cnc3ccccc3c2=O)CC1 [2-{4-[2-(4-Oxo-4H-quinazolin-3-yl)-acetyl]-piperazin-1-yl}-N-pyridin-4-yl-benzamide] |
| 3 nM | O=C(Nc1cc(Cl)cnc1N1CCCN(C(=O)CN2CCCCC2)CC1)c1cccc(Cl)c1 [3-Chloro-N-{5-chloro-2-[4-(2-piperidin-1-yl-acetyl)-[1,4]diazepan-1-yl]-pyridin-3-yl}-benzamide] |
